The results in this text go back to US10112933B2, “Methods and compositions for treatment of fibrosis” (Baylor College of Medicine, priority 2013, dated 2018).

Assay [1] deals with recombinant Stat3 (binding to EGFR Y1068 phosphododecapeptide) (Homo sapiens, UniProt P40763). As to the kind of experiment: Stat3 SH2/pY-peptide SPR binding inhibition assay. The settings on record: Stat3 500 nM, immobilized EGFR Y1068 phosphododecapeptide; read-out: SPR IC50 (competition with pY-peptide for binding to Stat3). The text has this: Data shown are representative of 2 or more experiments. The equilibrium binding levels obtained in the absence or presence of compounds were normalized (response obtained in the presence of compound÷the response obtained in the absence of compound×100), plotted against the log concentration (nM) of the compounds (panel G). The experimental points fit to a competitive binding curve that uses a four-parameter logistic equation (see exemplary methods for details). These curves were used to calculate IC50 (Table 1).
recombinant Stat3 (binding to EGFR Y1068 phosphododecapeptide), sequence (P40763 whole entry, species assumed): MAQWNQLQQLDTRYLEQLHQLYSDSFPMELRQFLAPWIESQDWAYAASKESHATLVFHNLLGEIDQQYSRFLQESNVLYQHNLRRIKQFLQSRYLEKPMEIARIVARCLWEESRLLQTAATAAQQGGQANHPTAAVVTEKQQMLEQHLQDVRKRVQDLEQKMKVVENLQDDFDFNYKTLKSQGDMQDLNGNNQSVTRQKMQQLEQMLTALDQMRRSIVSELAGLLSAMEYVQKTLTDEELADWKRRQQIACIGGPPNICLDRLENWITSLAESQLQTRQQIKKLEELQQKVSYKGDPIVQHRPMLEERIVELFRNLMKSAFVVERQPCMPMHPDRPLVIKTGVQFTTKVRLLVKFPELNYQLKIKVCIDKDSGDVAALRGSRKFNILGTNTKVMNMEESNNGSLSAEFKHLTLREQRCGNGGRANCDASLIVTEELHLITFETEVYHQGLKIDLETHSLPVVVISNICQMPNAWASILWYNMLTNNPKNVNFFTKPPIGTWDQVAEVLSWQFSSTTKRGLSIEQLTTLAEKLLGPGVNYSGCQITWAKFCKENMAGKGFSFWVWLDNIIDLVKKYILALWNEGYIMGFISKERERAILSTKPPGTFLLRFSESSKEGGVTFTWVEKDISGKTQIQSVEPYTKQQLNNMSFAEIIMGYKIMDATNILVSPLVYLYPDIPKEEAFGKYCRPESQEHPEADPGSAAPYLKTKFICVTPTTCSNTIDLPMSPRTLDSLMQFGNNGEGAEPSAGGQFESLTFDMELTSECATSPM
Stat3 SH2/pY-peptide binding assay. Stat3 binding assays were performed at 25° C. with a BIAcore 3000 biosensor using 20 mM Tris buffer pH 8 containing 2 mM mercaptoethanol and 5% DMSO as the running buffer (Kim et al., 2005). Phosphorylated and control non-phosphorylated biotinylated EGFR derived dodecapeptides based on the sequence surrounding Y1068 (Shao et al., 2004) were immobilized on a streptavidin coated sensor chip (BIAcore inc., Picataway N.J.). The binding of Stat3 was conducted in 20 mM Tris buffer pH 8 containing 2 mM β-mercaptoethanol at a flow rate of 10 uL/min for 1-2 minute. Aliquots of Stat3 at 500 nM were premixed with compound to achieve a final concentration of 1-1,000 uM and incubated at 4° C. prior to being injected onto the sensor chip. The chip was regenerated by injecting 10 uL of 100 mM glycine at pH 1.5 after each sample injection. A control (Stat3 with DMSO but without compound) was run at the beginning and the end of each cycle (40 sample injections) to ensure that the integrity of the sensor chip was maintained throughout the cycle run. The average of the two controls was normalized to 100% and used to evaluate the effect of each compound on Stat3 binding. Responses were normalized by dividing the value at 2 min by the response obtained in the absence of compounds at 2 min and multiplying by 100. IC50 values were determined by plotting % maximum response as a function of log concentration of compound and fitting the experimental points to a competitive binding model using a four parameter logistic equation: R=Rhigh−(Rhigh−Rlow)/(1+conc/A1)^A2, where R=percent response at inhibitor concentration, Rhigh=percent response with no compound, Rlow=percent response at highest compound concentration, A2=fitting parameter (slope) and A1=IC50 (BIAevaluation Software version 4.1).
EXP IIA. Stat3/pY-peptide SPR binding inhibition assay. Stat3 pY-peptide binding assays is performed at 25° C. using a BIAcore 3000 biosensor as described (Xu et al., 2009). Briefly, phosphorylated and control nonphosphorylated biotinylated EGFR derived dodecapeptides based on the sequence surrounding Y1068 are immobilized on a streptavidin coated sensor chip (BIAcore Inc., Piscataway N.J.). […]

The next assay addresses T1, Stat3:hSIE complex (Homo sapiens, UniProt P40763).
T1 construct: endogenous in cells; host or cells: HepG2
Kind of assay: Electrophoretic mobility shift assay (Stat3 DNA binding, hSIE probe). It counts as biochemical. The settings on record: extracts of IL-6-stimulated HepG2 cells, compound 300 μM. As for the experimental part:
Electrophoretic mobility shift assays were performed using whole-cell extracts prepared from HepG2 cells without and with stimulation with IL-6 (30 ng/ml) for 30 min. Protein (20 μg) was incubated with radiolabeled duplex oligonucleotide (hSIE) and DMSO without or with the indicated compounds (300 uM) for 60 minutes at 37° C. then separated by PAGE. The gel was dried and autoradiographed; the portion of the gel corresponding to the Stat3-bound hSIE band is shown. Data shown are representative of 2 studies.
Electrophoretic Mobility Shift Assay (EMSA): EMSA was performed using the hSIE radiolabeled duplex oligonucleotide as a probe as described (Tweardy et al., 1995). Briefly, high salt extracts were prepared from HepG2 cells incubated without or with IL-6 (30 ng/ml) for 30 minutes. Protein concentration was determined by Bradford Assay and 20 ug of extract was incubated with compound (300 uM) for 60 minutes at 37° C. […] Gels were dried and autoradiographed.
Once in the nucleus, Stat3 dimers bind to specific DNA elements to activate and, in some instances, repress gene transcription. […] Compounds that bind to the phosphopeptide-binding site of Stat3 might be expected to do the same. […]
For orientation: In EMSA bound probe runs differently from free probe, usually more slowly.

Assay [2] deals with breast cancer cell lines (MDA-MB-468, MDA-MB-231, MBA-MD-435, MCF7, MDA-MB-453). As to the kind of experiment: Breast cancer cell line apoptosis assay (nucleosome ELISA). Type of assay: cell-based, human. As to the method:
Breast cancer cell line apoptosis assay. Human breast carcinoma cell lines MDA-MB-468, MDA-MB-231, MBA-MD-435 and MCF7 were kindly provided by Dr. Powel H. Brown (Breast Cancer Center, Baylor College of Medicine). Breast cancer cell line, MDA-MB-453 was kindly provided by Dr. Shou Jiang (Breast Cancer Center, Baylor College of Medicine). All cell lines were grown in DMEM medium supplemented with 10% fetal bovine serum (FBS), 25,000 units penicillin G, 25,000 ug streptomycin, and 131.4 mg L-Glutamine and cultured in the incubator under the condition of 95% air, 5% CO2 at 37° C. (Garcia et al., 2001). Cells were seeded at 2,500 cells/cm^2 into 12-well plates. At 80% confluency, cells were washed with PBS and supplemented with fresh medium containing compound or the topoisomerase I-inhibitor, camptothecin, at 0, 0.1, 03, 1, 3, 10, 30, 100, 300 μM. At 24 hours, treatment was terminated by removing the medium from each well. Cells were lysed with cell lysis buffer ([…] for 30 minutes at 25° C.). Cell lysate (200 μl) was centrifuged at 200×g for 10 minutes and […] of each supernatant was assayed for nucleosomes using the Cell Death Detection ELISA (Roche Applied Science) as described by the manufacturer. The percent maximum nucleosome level was calculated by dividing the nucleosome level by the maximum nucleosome level achieved in the assay and multiplying by 100. This value was plotted as a function of the log compound concentration and the best-fitting curve generated using 4-Parameter Logistic Model/Dose Response/XLfit 4.2, IDBS software.
In general terms: An ELISA detects its analyte on a solid surface through an enzyme-linked reagent.

The structures appear in SMILES notation.

T1 sequence (P40763 2-770 limits assumed, one chain of several): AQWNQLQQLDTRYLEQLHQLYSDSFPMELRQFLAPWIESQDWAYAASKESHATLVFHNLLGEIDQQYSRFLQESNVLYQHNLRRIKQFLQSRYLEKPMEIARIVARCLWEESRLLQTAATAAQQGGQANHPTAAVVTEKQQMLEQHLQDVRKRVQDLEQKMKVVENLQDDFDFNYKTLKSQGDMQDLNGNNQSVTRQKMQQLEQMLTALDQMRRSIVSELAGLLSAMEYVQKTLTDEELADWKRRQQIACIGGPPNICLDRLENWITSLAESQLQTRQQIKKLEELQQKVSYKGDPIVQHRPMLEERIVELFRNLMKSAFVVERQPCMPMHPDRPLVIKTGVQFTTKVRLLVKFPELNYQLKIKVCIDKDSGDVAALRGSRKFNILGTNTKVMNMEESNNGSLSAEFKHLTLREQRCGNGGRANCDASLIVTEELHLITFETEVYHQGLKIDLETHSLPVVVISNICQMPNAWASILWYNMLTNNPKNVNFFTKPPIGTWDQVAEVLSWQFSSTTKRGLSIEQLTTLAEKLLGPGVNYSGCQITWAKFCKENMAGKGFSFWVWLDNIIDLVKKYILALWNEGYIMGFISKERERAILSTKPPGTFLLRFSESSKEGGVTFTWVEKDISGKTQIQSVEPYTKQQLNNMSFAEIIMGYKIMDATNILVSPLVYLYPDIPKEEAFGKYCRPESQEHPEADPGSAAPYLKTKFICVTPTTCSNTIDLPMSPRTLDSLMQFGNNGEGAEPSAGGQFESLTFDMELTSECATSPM

As to `CCOc1cc(C=C2C(=O)c3ccccc3C2=O)cc(Cl)c1OCc1cccc(C(=O)O)c1` [Cpd3-2, 3-({2-chloro-4-[(1,3-dioxo-1,3-dihydro-2H-inden-2-ylidene)methyl]-6-ethoxyphenoxy}methyl)benzoic acid], the IC50 (in general, the point on the concentration scale where inhibition reaches its midpoint) in assay [1] was determined as 256 µM.

Consider `O=C(O)c1ccc(C=CC(=O)c2ccc3c(c2)OCCO3)cc1` [Cpd3, 4-[3-(2,3-dihydro-1,4-benzodioxin-6-yl)-3-oxo-1-propen-1-yl]benzoic acid], for which the IC50 in assay [1] was 447 µM. Further, the “amount of hSIE shifted (Stat3:hSIE band intensity)” value at Stat3:hSIE complex was “reduced the amount of hSIE shifted by half or greater”. Also, the “apoptosis of breast cancer cell lines with constitutive Stat3 activation” value in assay [2] was “induced apoptosis preferentially”.

In the case of `CCN1C(=O)C(=Cc2ccc(-c3cc(C(=O)O)ccc3Cl)o2)C(=O)N(CC)C1=S` [Cpd30-12, 4-chloro-3-{5-[(1,3-diethyl-4,6-dioxo-2-thioxotetrahydro-5(2H)-pyrimidinylidene)methyl]-2-furyl}benzoic acid], the IC50 in assay [1] worked out at 114 µM.
